Data on ten compounds can be found in ChEMBL document CHEMBL1201862, “PubChem BioAssay data set” (2004).

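Protocol summary: plate cells (96-well), add compound at 5 concentrations, incubate 48 h, interpolate endpoints linearly. Here, GI50 denotes the concentration required for 50% inhibition of growth.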 Active and inactive are the calls of the source. Cut-off read from the data, not from the text of the source: active = GI50 up to about 1.1 µM and inactive = higher.

Test systems include MDA-N; NCI/ADR-RES; LOX IMVI; HT-29; UACC-257; DU-145; SR; PC-3; K562; MCF7; T47D; HCT-15; SF-295; OVCAR-3; SF-268; HCC 2998; Hs-578T; HCT-116; A549.
Common to all, as to test: inhibition of tumour cell growth, NCI panel, 48 h

As to `Cn1c(=O)c2[nH]c(CCC(=O)O)nc2n(C)c1=O`, the GI50 with MDA-N, with NCI/ADR-RES, in the test with LOX IMVI, in the test with HT-29, with UACC-257 and in the test on DU-145 was > 100 µM (inactive) each time. The GI50 in the test with SR is > 100 µM (inactive); in the test with PC-3, > 100 µM (inactive); in the test with K562 it was > 100 µM (inactive); with MCF7, > 100 µM (inactive); with T47D, > 100 µM (inactive); in the test with HCT-15, greater than 100 µM. In addition, the GI50 with SF-295, in the test on OVCAR-3, in the test on SF-268, in the test on HCC 2998, in the test on Hs-578T and in the test with HCT-116 was > 100 µM (inactive) in each case. Besides, in the test with A549, the GI50 is > 100 µM (inactive).
For `O=C(O)c1ccccc1NC(c1ccccc1)c1ccc2cccnc2c1O` (stereo not given), the GI50 with MDA-N was 13.4 µM (inactive); in the test on NCI/ADR-RES it was 3.77 µM (inactive); in the test with LOX IMVI, 7.96 µM (inactive); in the test with HT-29 it was 4.4 µM (inactive); with UACC-257 it was 14 µM (inactive); with DU-145 it was 18.7 µM (inactive). Further, the GI50 was 2.06 µM (inactive) in the test on SR; 9.04 µM (inactive) in the test on PC-3; 8.87 µM (inactive) in the test on K562; 4.85 µM (inactive) with MCF7; 11.3 µM (inactive) with T47D; 4.42 µM in the test with HCT-15. In addition, the GI50 with SF-295 was 4.37 µM (inactive); in the test with OVCAR-3 it was 3.63 µM (inactive); with SF-268 it was 5.19 µM (inactive); with HCC 2998, 12.3 µM (inactive); in the test on Hs-578T, 22.4 µM (inactive); with HCT-116 it was 3.65 µM (inactive). Also, in the test on A549, the GI50 is 5.56 µM (inactive).
For `CC1=CC(c2ccccc2)n2c(nc3cc4ccccc4cc32)N1` (stereo not given), the GI50 with MDA-N, in the test on NCI/ADR-RES, in the test with LOX IMVI, with HT-29, with UACC-257 and with DU-145 was > 100 µM (inactive) each time. Also, the GI50 with SR was 90.4 µM (inactive); in the test with PC-3, > 100 µM (inactive); with K562 it was > 100 µM (inactive); with MCF7 it was > 100 µM (inactive); with T47D, > 100 µM (inactive); in the test with HCT-15 it was greater than 100 µM. For the same compound, the GI50 with SF-295, with OVCAR-3, in the test with SF-268, in the test on HCC 2998, with Hs-578T and in the test with HCT-116 was > 100 µM (inactive) throughout. The GI50 in the test with A549 is > 100 µM (inactive).
With `CN1C(=O)N/C(=C\c2ccc(S(=O)(=O)N/N=C/c3ccccc3)cc2)C1=O`, the GI50 was 32 µM (inactive) with MDA-N; 27.6 µM (inactive) in the test on NCI/ADR-RES; 18.1 µM (inactive) with LOX IMVI; 30.9 µM (inactive) in the test on HT-29; 18.4 µM (inactive) in the test with UACC-257; 40 µM (inactive) with DU-145. For the same compound, the GI50 is 10.4 µM (inactive) in the test on SR; 22.1 µM (inactive) in the test with PC-3; 30 µM (inactive) with K562; 19.1 µM (inactive) with MCF7; 35.2 µM (inactive) in the test on T47D; 10.4 µM with HCT-15. Moreover, the GI50 was 21.9 µM (inactive) in the test on SF-295; 30.9 µM (inactive) with OVCAR-3; 26.8 µM (inactive) in the test on SF-268; 32.1 µM (inactive) in the test with HCC 2998; 35.5 µM (inactive) in the test on Hs-578T; 23.8 µM (inactive) in the test on HCT-116. Further, the GI50 in the test on A549 is 28.5 µM (inactive).
In the case of `COC(OC)C1OC(CO)C(n2ccc(N)nc2=O)C1O` (stereo not given), the GI50 in the test on MDA-N, with NCI/ADR-RES, with LOX IMVI, with HT-29, in the test with UACC-257 and in the test on DU-145 was > 100 µM (inactive) throughout. Moreover, the GI50 was > 100 µM (inactive) in the test on SR; > 100 µM (inactive) with PC-3; > 100 µM (inactive) in the test on K562; > 100 µM (inactive) with MCF7; > 100 µM (inactive) in the test on T47D; greater than 100 µM in the test on HCT-15. The GI50 in the test on SF-295, with OVCAR-3, in the test with SF-268, in the test with HCC 2998, in the test on Hs-578T and with HCT-116 was > 100 µM (inactive) throughout. The GI50 with A549 is > 100 µM (inactive).
On to `C[C@H]1CCC/C=C/[C@@H]2C[C@H](OC(=O)CN(C)C)C[C@H]2[C@H](O)/C=C/C(=O)O1`, for which the GI50 in the test with MDA-N was 0.135 µM (active); with NCI/ADR-RES it was 0.0139 µM (active); in the test on LOX IMVI, 0.0861 µM (active); in the test with HT-29 it was 0.105 µM (active); in the test with UACC-257 it was 0.109 µM (active); in the test on DU-145 it was 0.401 µM (active). Besides, the GI50 was 0.153 µM (active) with SR; 0.141 µM (active) in the test with PC-3; 0.241 µM (active) with K562; 0.187 µM (active) in the test on MCF7; 0.329 µM (active) in the test with T47D; 0.188 µM with HCT-15. In addition, the GI50 was 0.165 µM (active) in the test with SF-295; 0.169 µM (active) in the test with OVCAR-3; 0.2 µM (active) in the test with SF-268; 0.0612 µM (active) in the test with HCC 2998; 0.0458 µM (active) with Hs-578T; 0.242 µM (active) in the test with HCT-116. Further, the GI50 in the test with A549 was 0.286 µM (active).
Regarding `COc1ccc(C(SC2C(O)C(CO)OC2n2ccc(N)nc2=O)(c2ccccc2)c2ccc(OC)cc2)cc1` (stereo not given), the GI50 with MDA-N is 10.1 µM (inactive); with NCI/ADR-RES, 21 µM (inactive); in the test with LOX IMVI, 17.7 µM (inactive); in the test with HT-29 it was 16.9 µM (inactive); in the test with UACC-257, 18.6 µM (inactive); in the test on DU-145, 18.5 µM (inactive). In addition, the GI50 was 12.4 µM (inactive) in the test with SR; 16.4 µM (inactive) with PC-3; 26.4 µM (inactive) with K562; 17.3 µM (inactive) with MCF7; 19.1 µM (inactive) in the test with T47D; 17.8 µM in the test on HCT-15. Also, the GI50 in the test with SF-295 was 6.79 µM (inactive); in the test with OVCAR-3 it was 18.7 µM (inactive); in the test on SF-268, 17.7 µM (inactive); in the test on HCC 2998, 17.1 µM (inactive); with Hs-578T it was 18.4 µM (inactive); in the test on HCT-116, 14.9 µM (inactive). Also, in the test with A549, the GI50 is 18.5 µM (inactive).
As to `C/C(=N/NC(=S)N(Cc1ccccn1)Cc1ccccn1)c1cnccn1`, the GI50 with MDA-N was 2.67 µM (inactive); in the test with NCI/ADR-RES, 0.0242 µM (active); with LOX IMVI, 0.133 µM (active); with HT-29, 0.0303 µM (active); in the test on UACC-257 it was 0.47 µM (active); in the test on DU-145, 0.713 µM (active). Moreover, the GI50 with SR was 0.578 µM (active); with PC-3, 2.49 µM (inactive); in the test with K562 it was 0.519 µM (active); in the test on MCF7, 0.565 µM (active); in the test with T47D, 0.231 µM (active); in the test on HCT-15 it was 0.458 µM. The GI50 with SF-295 was 0.374 µM (active); in the test on OVCAR-3 it was 0.646 µM (active); in the test on SF-268 it was 0.418 µM (active); in the test on HCC 2998, 2.69 µM (inactive); in the test on Hs-578T, 6.46 µM (inactive); in the test on HCT-116, 0.33 µM (active). Moreover, the GI50 in the test on A549 was 0.329 µM (active).
`CC1(C)OCC(/C=C\C(O)CC2(C)OCCO2)CO1` (stereo not given): the GI50 in the test with MDA-N, with NCI/ADR-RES, in the test with LOX IMVI, with HT-29, with UACC-257 and in the test with DU-145 was > 100 µM (inactive) throughout. Also, the GI50 with SR was > 100 µM (inactive); in the test with PC-3, > 100 µM (inactive); in the test with K562, > 100 µM (inactive); in the test with MCF7 it was > 100 µM (inactive); in the test on T47D, > 100 µM (inactive); with HCT-15, greater than 100 µM. The GI50 with SF-295, in the test on OVCAR-3, in the test with SF-268, in the test with HCC 2998, in the test with Hs-578T and with HCT-116 was > 100 µM (inactive) in each case. Further, in the test on A549, the GI50 was > 100 µM (inactive).
`CO[C@H]1C[C@H](O[C@H]2CC[C@]3(C=O)[C@H]4CC[C@]5(C)[C@@H](C6=CC(=O)OC6)CC[C@]5(O)[C@@H]4CC[C@]3(O)C2)O[C@H](C)[C@H]1O[C@@H]1O[C@H](CO[C@@H]2O[C@H](CO)[C@@H](O)[C@H](O)[C@H]2O)[C@@H](O)[C@H](O)[C@H]1O`: the GI50 in the test with MDA-N is 0.128 µM (active); in the test on NCI/ADR-RES, 0.034 µM (active); with LOX IMVI, 0.0373 µM (active); in the test on HT-29, 0.0442 µM (active); in the test on UACC-257 it was 0.239 µM (active); in the test on DU-145, 0.0156 µM (active). The GI50 in the test on SR is 0.0188 µM (active); with PC-3, 0.038 µM (active); with K562, 0.0857 µM (active); in the test on MCF7 it was 0.0546 µM (active); with T47D it was 0.0527 µM (active); with HCT-15, 0.0405 µM. For the same compound, the GI50 with SF-295 was 0.0395 µM (active); in the test with OVCAR-3, 0.0241 µM (active); in the test with SF-268, 0.0356 µM (active); in the test with HCC 2998, 0.158 µM (active); with Hs-578T, 0.0278 µM (active); with HCT-116 it was 0.0239 µM (active). The GI50 in the test with A549 is < 0.0131 µM (active).
